The target in one test is T1, human Edg-1 receptor (Homo sapiens, UniProt P21453).
T1 construct: FLAG (N); expressed in transfected cells; membrane preparation
T1 sequence (P21453 whole entry): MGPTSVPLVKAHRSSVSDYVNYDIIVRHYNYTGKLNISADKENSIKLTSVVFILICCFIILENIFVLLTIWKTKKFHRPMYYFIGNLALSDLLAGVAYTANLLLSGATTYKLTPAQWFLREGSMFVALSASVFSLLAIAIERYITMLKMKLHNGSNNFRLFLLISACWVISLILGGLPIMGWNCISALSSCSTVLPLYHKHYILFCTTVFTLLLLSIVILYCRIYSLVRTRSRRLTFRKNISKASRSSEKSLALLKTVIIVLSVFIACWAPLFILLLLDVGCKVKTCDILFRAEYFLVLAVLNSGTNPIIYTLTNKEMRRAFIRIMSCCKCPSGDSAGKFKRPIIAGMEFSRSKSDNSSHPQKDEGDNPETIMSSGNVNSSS
Briefly: GTP-γ-S assay using human Edg-1 receptors (scintillation proximity assay, CHO Flp-In cell membrane preparation). Format: biochemical. As to conditions: test compound at 10 μM; high control 10 μM S1P regarded as 100% activation; [35S]GTP-γ-S binding, triplicate. The text has this:
A) GTP-γ-S Assay Using Human Edg-1 Receptors
In order to determine the Edg-1 receptor activation by the compounds of the invention, a GTP-γ-S (guanosine 5′-[thio]triphosphate) assay for G-protein coupled receptor binding based on the scintillation proximity assay principle was used, employing a cell membrane preparation from a CHO Flp-In cell line which constitutively overexpresses the human Edg-1 receptor.
The Flp-In™ expression system (Invitrogen, cat. no. K6010-01) allows the generation of stable mammalian cell lines into which the gene of interest has been integrated through homologous recombination at a specific genomic location called Flp Recombination Target (FRT) site by means of a Flp recombinase encoded by the pOG44 expression plasmid. The integration of the pcDNA5/FRT expression construct into the Flp-In host cell line genome results in the transcription of the gene of interest. The stably transfected cells become hygromycin-resistant.
One day prior to transfection, 200 000 Flp-In-CHO cells were seeded in Ham F-12 medium (Invitrogen, cat. no. 31765) supplemented with 10% fetal calf serum (FCS; Perbio Science, cat. no. SH30068.03) in a 6-well plate and incubated at 37° C./5% CO2 overnight. Using the FuGENE® 6 transfection reagent (Roche, cat. no. 11988387001), cells were cotransfected with the Flp recombinase expression plasmid pOG44 and a modified plasmid additionally containing the edg-1 gene (accession no. NM_001400) termed as pcDNA5-FRT-TO_nFLAG_DEST-EDG-1 with a 9:1 ratio. To obtain the modified pcDNA5-FRT-TO_nFLAG_DEST plasmid, the Invitrogen plasmid pcDNA5/FRT/TO (Invitrogen, cat. no. V6520-20) was adapted to the Gateway® (Invitrogen) cloning system by inserting a Gateway cassette containing attR recombination sites flanking a ccdB gene and a chloramphenicol-resistance gene (Gateway conversion system, Invitrogen, cat. no. 11828-029). In addition a FLAG tag epitope was added before the 5′ att recombination site to allow recombinant expression of N-terminally FLAG-tagged proteins.
For the transfection of one well, 1.08 μg of pOG44 and 0.12 μg of pcDNA5-FRT-TO_nFLAG_DEST-EDG-1 were mixed to 100 μl of serum-free Ham F-12 medium containing 6 μl of FuGENE® 6 transfection reagent. After 20 min of incubation, the transfection reagent/DNA complex was distributed dropwise on the cells. The cells were incubated for 24 h at 37° C. Then the cells from 3 wells were transferred to a T75 flask (Greiner Cellstar®, cat. no. 658175) containing Ham F-12 medium supplemented with 10% of FCS but without antibiotic and were incubated another 24 h. 48 h after transfection, the medium was replaced by selection medium (Ham F-12 supplemented with 10% of FCS and 300 μg/ml of hygromycin B (Invitrogen, cat. no. 10687-010)). The medium was exchanged every 2 to 3 days until a resistant population of cells had grown. […] After 2 weeks of selection, the cells were transferred into T175 flasks (Greiner Cellstar®, cat. no. 660175) and cultivated for batch production. Cells were harvested from the culture flasks by short treatment (2 to 5 min) with Accutase (PAA, cat. no. L11-007), resuspended in selection medium (see above) and centrifuged at 200×g for 5 min. The cells were resuspended in a mixture of 90% of FCS and 10% of dimethylsulfoxide and stored frozen in liquid nitrogen.
A membrane preparation was obtained by standard methods from the afore-described CHO Flp-In cell line constitutively overexpressing the human Edg-1 receptor. Briefly, the cryopreserved cells were taken in culture and grown until confluency in T175 cell culture flasks (Becton Dickinson, cat. no. 35 5001). […]
(In general: In a scintillation proximity assay essentially only radioactivity close to the scintillant gives light.)
For `CCCOc1nc(OC(C)CC(F)(F)F)nc2oc(-c3cc(C)c(OCC(=O)O)c(C)c3)nc12` (centres unmarked) [Example 21, {2,6-dimethyl-4-[7-propoxy-5-(3,3,3-trifluoro-1-methyl-propoxy)-oxazolo[5,4--d]pyrimidin-2-yl]-phenoxy}-acetic acid], the “% Activation (Edg-1 receptor activation in percent of the activation by 10 μM S1P)” value is 81%.

Staying with this test, now noted: test compound at 10 μM; high control 10 μM S1P regarded as 100% activation; [35S]GTP-γ-S binding, triplicate; read-out: % Activation (Edg-1 receptor activation in percent of the activation by 10 μM S1P).
Consider `CCCOc1nc(OC(C)C(F)(F)F)nc2oc(-c3cc(C)c(OCC(=O)O)c(C)c3)nc12` (centres unmarked) [Example 24, {2,6-dimethyl-4-[7-propoxy-5-(2,2,2-trifluoro-1-methyl-ethoxy)-oxazolo[5,4-d]pyrimidin-2-yl]-phenoxy}-acetic acid], for which the activation at 10 µM was 85%.

In the case of `CCCOc1nc(Oc2ccc(C)cc2F)nc2oc(-c3cc(C)c(OCC(=O)O)c(C)c3)nc12` [Example 44, {4-[5-(2-fluoro-4-methylphenoxy)-7-propoxy-oxazolo[5,4-d]pyrimidin-2-yl]-2,6-dimethylphenoxy}-acetic acid], the activation at 10 µM is 43%.

Turning to `CCCOc1nc(OCC2CCCCC2)nc2oc(-c3cc(C)c(OCC(=O)O)c(C)c3)nc12` [Example 11, [4-(5-cyclohexylmethoxy-7-propoxy-oxazolo[5,4-d]pyrimidin-2-yl)-2,6-dimethyl-phenoxy]-acetic acid], the activation at 10 µM came out at 76%.

Turning to `CCCOc1nc(Oc2ccc(Cl)cc2F)nc2oc(-c3cc(C)c(OCC(=O)O)c(C)c3)nc12` [Example 59, {4-[5-(4-chloro-2-fluorophenoxy)-7-propoxy-oxazolo[5,4-d]pyrimidin-2-yl]-2,6-dimethyl-phenoxy}-acetic acid], the activation at 10 µM was 72%.

For `CCCOc1nc(Oc2cccc(C(F)(F)F)c2F)nc2oc(-c3cc(C)c(OCC(=O)O)c(C)c3)nc12` [Example 72, {4-[5-(2-fluoro-3-trifluoromethylphenoxy)-7-propoxy-oxazolo[5,4-d]pyrimidin-2-yl]-2,6-dimethyl-phenoxy}-acetic acid], the activation at 10 µM was determined as 48%.

In the case of `CCCOc1nc(Oc2ccc3sc(C)nc3c2)nc2oc(-c3cc(C)c(OCC(=O)O)c(C)c3)nc12` [Example 70, {2,6-dimethyl-4-[5-(2-methylbenzothiazol-5-yloxy)-7-propoxy-oxazolo[5,4-d]pyrimidin-2-yl]-phenoxy}-acetic acid], the activation at 10 µM was 89%.

For the molecule `CCOc1nc(Oc2cccc(Cl)c2)nc2oc(-c3cc(C)c(OCC(=O)O)c(C)c3)nc12` [Example 38, {4-[5-(3-chlorophenoxy)-7-ethoxy-oxazolo[5,4-d]pyrimidin-2-yl]-2,6-dimethyl-phenoxy}-acetic acid], the activation at 10 µM came out at 55%.

`CCCOc1nc(OCCC(F)(F)F)nc2oc(-c3cc(C)c(OCC(=O)O)c(C)c3)nc12` [Example 16, {2,6-dimethyl-4-[7-propoxy-5-(3,3,3-trifluoro-propoxy)-oxazolo[5,4-d]pyrimidin-2-yl]-phenoxy}-acetic acid]: the activation at 10 µM amounted to 107%.

On to `CCCOc1nc(Oc2ccc(C)c(Cl)c2)nc2oc(-c3cc(C)c(OCC(=O)O)c(C)c3)nc12` [Example 55, {4-[5-(3-chloro-4-methylphenoxy)-7-propoxy-oxazolo[5,4-d]pyrimidin-2-yl]-2,6-dimethylphenoxy}-acetic acid], for which the activation at 10 µM is 66%.

Take `CCCOc1nc(Oc2cc(C)cc(F)c2)nc2oc(-c3cc(C)c(OCC(=O)O)c(C)c3)nc12` [Example 42, {4-[5-(3-fluoro-5-methylphenoxy)-7-propoxy-oxazolo[5,4-d]pyrimidin-2-yl]-2,6-dimethyl-phenoxy}-acetic acid]: the activation at 10 µM was found to be 66%.

Take `CCCOc1nc(OCC2CCC2)nc2oc(-c3cc(C)c(OCC(=O)O)c(C)c3)nc12` [Example 13, [4-(5-cyclobutylmethoxy-7-propoxy-oxazolo[5,4-d]pyrimidin-2-yl)-2,6-dimethyl-phenoxy]-acetic acid]: the activation at 10 µM stood at 99%.

On to `CCCOc1nc(Oc2ccccc2OC(F)(F)F)nc2oc(-c3cc(C)c(OCC(=O)O)c(C)c3)nc12` [Example 71, {2,6-dimethyl-4-[7-propoxy-5-(2-trifluoromethoxyphenoxy)-oxazolo[5,4-d]pyrimidin-2-yl]-phenoxy}-acetic acid], for which the activation at 10 µM worked out at 62%.

Turning to `CCCOc1nc(Oc2cc(C(F)(F)F)ccc2Cl)nc2oc(-c3cc(C)c(OCC(=O)O)c(C)c3)nc12` [Example 77, {4-[5-(2-chloro-5-trifluoromethylphenoxy)-7-propoxy-oxazolo[5,4-d]pyrimidin-2-yl]-2,6-dimethyl-phenoxy}-acetic acid], the activation at 10 µM stood at 77%.

As for `CCCOc1nc(OCC2CCCC2)nc2oc(-c3cc(C)c(OCC(=O)O)c(C)c3)nc12` [Example 18, [4-(5-cyclopentylmethoxy-7-propoxy-oxazolo[5,4-d]pyrimidin-2-yl)-2,6-dimethyl-phenoxy]-acetic acid], the activation at 10 µM turned out to be 83%.

Consider `CCCOc1nc(Oc2cccc(C)c2)nc2oc(-c3cc(C)c(OCC(=O)O)c(C)c3)nc12` [Example 29, [2,6-dimethyl-4-(7-propoxy-5-(3-methylphenoxy)-oxazolo[5,4-d]pyrimidin-2-yl)-phenoxy]-acetic acid], for which the activation at 10 µM came to 75%.

In the case of `CCCOc1nc(Oc2ccccc2F)nc2oc(-c3cc(C)c(OCC(=O)O)c(C)c3)nc12` [Example 4, {4-[5-(2-fluoro-phenoxy)-7-propoxy-oxazolo[5,4-d]pyrimidin-2-yl]-2,6-dimethyl-phenoxy}-acetic acid], the activation at 10 µM is 76%.

Regarding `CCCOc1nc(Oc2ccc(C)nc2)nc2oc(-c3cc(C)c(OCC(=O)O)c(C)c3)nc12` [Example 32, {2,6-dimethyl-4-[5-(6-methylpyridin-3-yloxy)-7-propoxy-oxazolo[5,4-d]pyrimidin-2-yl]-phenoxy}-acetic acid], the activation at 10 µM amounted to 114%.

As for `CCCOc1nc(Oc2ccccc2C(F)(F)F)nc2oc(-c3cc(C)c(OCC(=O)O)c(C)c3)nc12` [Example 69, {2,6-dimethyl-4-[7-propoxy-5-(2-trifluoromethylphenoxy)-oxazolo[5,4-d]pyrimidin-2-yl]-phenoxy}-acetic acid], the activation at 10 µM stood at 67%.

With `CCCOc1nc(Oc2ccc3ncsc3c2)nc2oc(-c3cc(C)c(OCC(=O)O)c(C)c3)nc12` [Example 66, {4-[5-(benzothiazol-6-yloxy)-7-propoxy-oxazolo[5,4-d]pyrimidin-2-yl]-2,6-dimethylphenoxy}-acetic acid], the activation at 10 µM was 102%.

Consider `CCCOc1nc(Oc2cccc(OC)c2)nc2oc(-c3cc(C)c(OCC(=O)O)c(C)c3)nc12` [Example 41, {4-[5-(3-methoxyphenoxy)-7-propoxy-oxazolo[5,4-d]pyrimidin-2-yl]-2,6-dimethylphenoxy}-acetic acid], for which the activation at 10 µM worked out at 73%.

`CCCOc1nc(Oc2cc(F)cc(C(F)(F)F)c2)nc2oc(-c3cc(C)c(OCC(=O)O)c(C)c3)nc12` [Example 75, {4-[5-(3-fluoro-5-trifluoromethylphenoxy)-7-propoxy-oxazolo[5,4-d]pyrimidin-2-yl]-2,6-dimethyl-phenoxy}-acetic acid]: the activation at 10 µM was 48%.

`CCCOc1nc(Oc2cc(F)ccc2F)nc2oc(-c3cc(C)c(OCC(=O)O)c(C)c3)nc12` [Example 1, {4-[5-(2,5-Difluoro-phenoxy)-7-propoxy-oxazolo[5,4-d]pyrimidin-2-yl]-2,6-dimethyl-phenoxy}-acetic acid]: the activation at 10 µM worked out at 100%.
